Source: paper PMC8037723, “Functional Characterization of an Anthocyanin Dimalonyltransferase in Maize” (Molecules, 2021)

System: T1, Aat1
T1 construct: full length, 6x-His-tag in pET-30a(+) (EcoRI/HindIII), E. coli Rosetta-gami 2(DE3)pLysS, Ni-NTA purified
Assay: UHPLC product quantification at […] nm, Michaelis-Menten fit
Type: biochemical, Zea mays
Conditions: 100 mM potassium phosphate pH 8.0, 30 °C

[1] = 60 µM malonyl-CoA, substrate 5-120 µM
[2] = acyl donor, 120 µM cyanidin 3-O-glucoside, donor 5-30 µM

| SMILES | Km [1] | Km [2] | other results |
| --- | --- | --- | --- |
| COc1cc(-c2[o+]c3cc(O)cc(O)c3cc2O[C@@H]2O[C@H](CO)[C@@H](O)[C@H](O)[C@H]2O)ccc1O [Peonidin 3-O-Glucoside] | 5.14 ± 0.93 µM |  |  |
| O=C(O)CC(=O)OC[C@H]1O[C@@H](Oc2cc3c(O)cc(O)cc3[o+]c2-c2ccc(O)c(O)c2)[C@H](O)[C@@H](O)[C@@H]1O [compound 2, Cyanidin 3-O-6”-Malonylglucoside] |  |  | Km (60 µM malonyl-CoA, substrate 2.5-30 µM, semi-preparative fraction of 91.95% purity): 1.33 ± 3.97 µM |
| OC[C@H]1O[C@@H](Oc2cc3c(O)cc(O)cc3[o+]c2-c2ccc(O)c(O)c2)[C@H](O)[C@@H](O)[C@@H]1O [compound 1, Cyanidin 3-O-Glucoside] | 13.1 ± 0.23 µM |  |  |
| OC[C@H]1O[C@@H](Oc2cc3c(O)cc(O)cc3[o+]c2-c2ccc(O)cc2)[C@H](O)[C@@H](O)[C@@H]1O [Pelargonidin 3-O-Glucoside] | 8.92 ± 0.41 µM |  |  |

The next lines start with results.

| Km [1] | Km [2] | SMILES | other results |
| --- | --- | --- | --- |
|  | 60.09 ± 0.02 µM | CC(C)(COP(=O)(O)OP(=O)(O)OC[C@H]1O[C@@H](n2cnc3c(N)ncnc32)[C@H](O)[C@@H]1OP(=O)(O)O)[C@@H](O)C(=O)NCCC(=O)NCCSC(=O)CCC(=O)O [Succinyl-CoA] |  |
|  | 40.12 ± 0.04 µM | CC(C)(COP(=O)(O)OP(=O)(O)OC[C@H]1O[C@@H](n2cnc3c(N)ncnc32)[C@H](O)[C@@H]1OP(=O)(O)O)[C@@H](O)C(=O)NCCC(=O)NCCSC(=O)CC(=O)O [Malonyl-CoA] |  |
